From patent US12100151B2, “Droplet imaging pipeline” (Xilis, Inc., priority 2022, dated 2024)
Entries after “also recorded” stand apart in the source; their conditions may differ.

Experiments:
sarcoma cancer MOS [1] = test: live/dead cell dye imaging assay on sarcoma cancer MOS; type: cell-based; conditions: sarcoma MOS treated on Day 7 after establishment; FIG. 5F bottom panel
Excerpt: (§1) The imaging-based MOS drug assay allowed further delineating MOS 3D structures from individual stromal cells by overcoming fundamental limits of bulk assays, e.g., cell number, well-to-well variation, heterogeneity, and signal-to-noise ratio.

sarcoma cancer MOS [2] = test: CTG luminescent cell viability assay on sarcoma cancer MOS; type: cell-based; conditions: sarcoma MOS treated on Day 7 after establishment; FIG. 5F top panel
Experimental: To measure cell viability, we used the CTG luminescent cell viability assay. CellTiter-Glo 3-D reagent (Promega, catalog no. G9681) was added in a 1:1 ratio with the initial well volume ([…], of CTG reagent 96-well plates and 384-well plates, respectively). The plates were placed on a shaker for 30 min. We measured luminescence by using a plate reader for each well.
Cell viability was assessed using both metabolic and imaging parameters. For the metabolic assay, Day 0 brightfield images were used to normalize CTG measurements for each well. Total surface areas (tSA) outputted from the machine learning model were used for normalizing the plating variations. The measured CTG value of each well was then divided by these surface area ratios to determine the adjusted CTG values. These adjusted CTG values were used to generate drug response curves, e.g., viability curves for each drug condition.
as §1

CRC #6 = test: imaging-based MOS drug assay (MOS size, live/dead CAM/EtH dyes) on CRC #6; type: cell-based; conditions: CRC #6 model
Excerpt: (§2) The plates were scanned using the Celigo imaging cytometer and its software. We collected the brightfield images on the day (day 0) of the drug treatment and on the day right before performing the CellTiter-Glo (CTG) assay. Upon inserting the plate, images were set to be acquired on brightfield, green, and red fluorescence channels. The brightfield channel was used to focus the device and ensure the MOS boundaries were crisp. The green (live cell) fluorescence channel exposure time was then adjusted to ensure pixel intensity was below 200 across the control triplicate wells to avoid overexposure. This process was repeated for the red (dead cell) fluorescence channel in the positive control, killing condition triplicate wells. After scanning the plate, the stitched images of each well were exported in tiff format for the downstream imaging analysis.
(§3) We performed the live and dead cell staining on the same day prior to the CTG assay. For 96 well plates, a working dye solution of 20 μM Ethidium Homodimer-2 (Thermo Fisher, Cat. No. E3599) and 5 μM Calcein AM (Thermo Fisher, catalog No. C3100MP) was prepared by adding 1 mM Calcein AM, 1 mM Ethidium Homodimer-2, and CRC media in a 1:8:191 ratio. For 384-well plates, the working dye solution of 10 μM Ethidium Homodimer-2 and 2.5 μM Calcein AM was prepared by adding 1 mM Calcein AM, 1 mM Ethidium Homodimer-2, and colorectal cancer (CRC) media in a 1:8:391 ratio. After the solution was prepared, 11 μL and 10 μL of dye solution were added to each well on the 96-well and 384-wells plates, respectively, to yield a final well concentration of 2 μM Ethidium Homodimer-2 and 0.5 μM Calcein AM. The plates were then incubated for 45 min at 37° C.
(§4) Therefore, in studies involving the ratio of live-cell stain to dead-cell stain, we increased the predicted object mask to capture all the dead-stain fluorescence signal. The size increase was performed using one iteration of the dilate algorithm in OpenCV with a kernel size of 10×10. Any other MOSs detected by the machine learning model that overlap with this expanded region were removed before the integrated fluorescence was computed.
For the live and dead cell dyes-based imaging assay, the integrated live cell dye (Calcein AM) and dead cell dye (Eth) signals for each segmented object were determined. […]
(§5) To further increase the resolution and power of MOS drug assay pipeline, we developed an orthogonal approach by spiking a combination of live-cell (Calcein AM, CAM) and dead-cell (Ethidium Homodimer II, EtH) dyes (FIG. 5A; scale bar of 200 μm) into the drug assay plates prior to performing the CTG assay. We were able to quantitatively measure the integrated intensities of the CAM and EtH dyes in addition to MOS sizes.

CRC #5 = CRC #5 model; for sizes of CRC #5 MOS: FIG. 5A top panel; for drug response curve by median CAM/EtH dye ratios as compared to CTG based assay: FIG. 5C; for cytostatic vs. cytotoxic drug effect: from size, CAM/EtH ratio and CTG
Excerpt: as §2, §3, §4
For the live and dead cell dyes-based imaging assay, the integrated live cell dye (Calcein AM) and dead cell dye (Eth) signals for each segmented object were determined. To assess drug response at individual MOS level, the integrated intensities, or the ratios of Calcein AM/EtH, were shown on the scatter plot or histogram. The correlation of dose-dependent drug response with the median ratios of the integrated live/dead cell dye intensities from each well were computed and plotted.
as §5

Row | SMILES | drug response by median values of live/dead cell ratios (sarcoma cancer MOS [1]) | bulk CTG readouts (raw CTG or adjusted CTG) drug response curves (sarcoma cancer MOS [2]) | sensitivity of the model to the drug (CRC #6) | sizes of CRC #6 MOS (CRC #6) | sizes of CRC #5 MOS (CRC #5) | drug response curve by median CAM/EtH dye ratios as compared to CTG based assay (CRC #5) | cytostatic vs. cytotoxic drug effect (CRC #5) | drug resistant clones identified (CRC #6; FIG. 5A and FIG. 5D) | drug response curve by median CAM/EtH dye ratios as compared to CTG based assay (CRC #6; FIG. 5C) | ratios of CAM/EtH dye integrated intensities (CRC #5; live-cell Calcein AM / dead-cell Ethidium Homodimer II)
1 | CC(=O)O[C@@]12CO[C@@H]1C[C@H](O)[C@@]1(C)C(=O)[C@H](O)C3=C(C)[C@@H](OC(=O)[C@H](O)[C@@H](NC(=O)OC(C)(C)C)c4ccccc4)C[C@@](O)([C@@H](OC(=O)c4ccccc4)[C@H]21)C3(C)C [Docetaxel] | clear dose-dependent drug response | not able to provide any meaningful dose-dependent drug response curves |  |  |  |  |  |  |  | 
2 | C#Cc1cccc(Nc2ncnc3cc(OCCOC)c(OCCOC)cc23)c1 [Erlotinib] |  |  | resistant to EGFR inhibition | no obvious decrease | decreased | divergence between CTG plot and CAM/EtH ratio plot | cytostatic effect; also recorded: cytostatic but not the cytotoxic effect |  |  | 
3 | Nc1ccn([C@@H]2O[C@H](CO)[C@@H](O)C2(F)F)c(=O)n1 [Gemcitabine] | less sensitive response | not able to provide any meaningful dose-dependent drug response curves |  |  |  |  |  |  |  | 
4 | CCc1c2c(nc3ccc(O)cc13)-c1cc3c(c(=O)n1C2)COC(=O)[C@]3(O)CC [SN38] |  |  |  |  | decreased | comparable dose-dependent drug responses | cytotoxic effect | identified the drug resistant clones | comparable dose-dependent drug responses | only decreased in the wells treated with SN38
